According to patent US8604206B2, “Compositions for preventing and/or treating degenerative disorders of the central nervous system” (Amicus Therapeutics, Inc., priority 2009, dated 2013):
Like-named read-outs stand apart in the source and are kept apart here.

Legend:
[1] = molecular target: recombinant human GCase (rhGCase; Cerezyme®) (Homo sapiens (Human), UniProt P04062, R534H); test: In vitro enzyme inhibition assay (4-MU-β-D-Glc substrate), inhibition constants; assay type: biochemical
Method: The binding affinity (defined here by Ki binding constant) of GCase for novel compounds of the present invention were empirically determined using enzyme inhibition assays. In brief, the enzyme inhibition assays used monitored the ability of a test compound to bind and prevent the hydrolysis of a fluorogenic substrate in a concentration-dependent mariner. Specifically, the enzyme activity of recombinant human GCase (rhGCase; Cerezyme®, Genzyme Corp.) was measured using the 4-methylumbelliferyl-β-D-glucopyranoside (4-MU-β-D-Glc) fluorogenic substrate in the absence or in the presence of varying amounts of each test compound. […] The enzyme inhibition assays were performed at both pH 7.0 (endoplasmic reticulum pH) and at pH 5.2 (lysosomal pH) to gain insight into the binding affinity (i.e., potency) of compounds for GCase in the endoplasmic reticulum and lysososome.
Various concentrations of test compounds were prepared in buffer “M” consisting of 50 mM sodium phosphate buffer with 0.25% sodium taurocholate at pH 7.0 and pH 5.2. Enzyme (Cerezyme®, a recombinant form of the human enzyme β-glucocerebrosidase) was also diluted in the same buffer “M” at pH 7.0 and pH 5.2. […] Five microliters of diluted enzyme was added to 15 μl of the various inhibitor concentrations or buffer “M” alone and incubated at 37° C. for 1 hour with 50 μl of the substrate preparation to assess β-glucosidase activity at pH 7.0 and pH 5.2. […] Fluorescence was measured on a plate reader for 1 sec/well using 355 nm excitation and 460 nm emission.

Rat pharmacokinetics = assay type: in vivo; details: male, Sprague-Dawley, plasma; for Cmax: read-out: Cmax
Method: Pharmacokinetic (PK) data was obtained in rats to assess the bioavailability of test compound. In particular, the following PK parameters were calculated: bioavailability as measured by area under the Concentration/Time curve (AUC), fraction of dose available (% F; further defined below), clearance (CL), volume of distribution (Vd), and half-life (t½). […] Three rats were used per dosing group. Blood was collected over a 24-hr period. The time points for blood collection after intravenous administration were: 0, 2.5, 5, 10, 15, 30, 45 min, 1, 2, 4, 8, 12, and 24 hrs; time points for blood collection after p.o. administrations were: 0, 5, 15, 30, 45 min, 1, 2, 3, 4, 8, 12, and 24 hrs. Plasma samples were analyzed for compound levels by LC-MS/MS at PPD. Raw data was analyzed by non-compartmental analysis in Win-nonLin to calculate VD, % F, CL, and t1/2.

[2] = pH 5.2, Cheng-Prusoff from IC50, read-out: Ki (μM) pH 5.2
[3] = pH 5.2, read-out: IC50 (μM) pH 5.2
[4] = pH 5.2, repeated in Table 3A, read-out: Ki pH 5.2
[5] = pH 5.2, repeated in Table 3B, read-out: Ki pH 5.2
[6] = pH 7.0, Cheng-Prusoff from IC50, read-out: Ki (μM) pH 7.0
[7] = pH 7.0, read-out: IC50 (μM) pH 7.0
[8] = IV, 3 mg/kg free base, AUC0-12 hr, read-out: AUClast (hr*ng/ml), AUC0-12 hr
[9] = IV, 3 mg/kg free base, read-out: t1/2 (converted)
[10] = PO, 10 mg/kg free base, read-out: % F
[11] = PO, 10 mg/kg free base, read-out: t1/2 (converted)
[12] = PO, 30 mg/kg free base, AUC0-24 hr, read-out: AUClast (hr*ng/ml), AUC0-24 hr
[13] = PO, 30 mg/kg free base, read-out: % F
[14] = PO, 30 mg/kg free base, read-out: t1/2 (converted)
[15] = PO, 100 mg/kg free base, AUC0-24 hr, read-out: AUClast (hr*ng/ml), AUC0-24 hr
[16] = PO, 100 mg/kg free base, read-out: % F
[17] = PO, 100 mg/kg free base, read-out: t1/2 (converted)
[18] = intravenous, oral, summary of Tables 4A-D, read-out: half-life
[19] = po, summary of Tables 4A-D, read-out: oral bioavailability

recombinant human GCase (rhGCase; Cerezyme®), sequence (P04062 40-536 R534H limits assumed): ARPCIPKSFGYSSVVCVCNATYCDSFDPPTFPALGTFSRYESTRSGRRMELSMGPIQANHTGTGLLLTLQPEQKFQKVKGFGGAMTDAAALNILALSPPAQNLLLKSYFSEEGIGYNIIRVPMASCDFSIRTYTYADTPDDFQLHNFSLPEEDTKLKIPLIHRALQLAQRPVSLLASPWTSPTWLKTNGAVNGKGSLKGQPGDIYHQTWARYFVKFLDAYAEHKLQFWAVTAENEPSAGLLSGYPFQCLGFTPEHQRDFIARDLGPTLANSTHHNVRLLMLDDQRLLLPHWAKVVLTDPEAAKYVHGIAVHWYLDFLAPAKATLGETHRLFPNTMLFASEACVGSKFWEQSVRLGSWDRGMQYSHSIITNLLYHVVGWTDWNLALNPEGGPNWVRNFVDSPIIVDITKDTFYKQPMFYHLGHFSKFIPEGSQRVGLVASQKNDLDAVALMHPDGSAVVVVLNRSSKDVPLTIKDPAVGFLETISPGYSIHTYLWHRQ

O[C@@H]1[C@@H](Cc2ccccc2)CNC[C@H]1O [(3R,4R,5S)-5-benzyl-piperidine-3,4-diol]
Ki [1, 2]: 0.273 ± 0.012 µM | IC50 [1, 3]: 0.659 ± 0.028 µM | Ki [1, 4]: 0.273 ± 0.012 µM | Ki [1, 5]: 0.273 ± 0.012 µM | Ki [1, 6]: 0.067 ± 0.005 µM | IC50 [1, 7]: 0.127 ± 0.01 µM | Vd (Rat pharmacokinetics; IV, 3 mg/kg free base): 12.6 ± 1.79 L/kg | clearance (Rat pharmacokinetics; IV, 3 mg/kg free base): 85.8 mL/min/kg | AUC(0-t) (Rat pharmacokinetics; [8]): 592 ± 60.9 ng·h/mL | Cmax (Rat pharmacokinetics; IV, 3 mg/kg free base): 969 ± 104 ng/mL | half-life (Rat pharmacokinetics; [9]): 1.7 ± 1.5 h | AUC(0-t) (Rat pharmacokinetics; PO, 10 mg/kg free base, AUC0-24 hr, read-out: AUClast (hr*ng/ml), AUC0-24 hr): 1200 ± 46.4 ng·h/mL | bioavailability (Rat pharmacokinetics; [10]): 61.7 ± 2.4% | Cmax (Rat pharmacokinetics; PO, 10 mg/kg free base): 641 ± 48.7 ng/mL | half-life (Rat pharmacokinetics; [11]): 3.86 ± 0.6 h | AUC(0-t) (Rat pharmacokinetics; [12]): 3690 ± 71.5 ng·h/mL | bioavailability (Rat pharmacokinetics; [13]): 62.3 ± 1.2% | Cmax (Rat pharmacokinetics; PO, 30 mg/kg free base): 1700 ± 133 ng/mL | half-life (Rat pharmacokinetics; [14]): 3.8 ± 0.19 h | AUC(0-t) (Rat pharmacokinetics; [15]): 13500 ± 2180 ng·h/mL | bioavailability (Rat pharmacokinetics; [16]): 68.3 ± 10.8% | Cmax (Rat pharmacokinetics; PO, 100 mg/kg free base): 7140 ± 1360 ng/mL | half-life (Rat pharmacokinetics; [17]): 2.9 ± 0.11 h | half-life (Rat pharmacokinetics; [18]): 1 to 4 h | bioavailability (Rat pharmacokinetics; [19]): 50 to 100%

CC[C@@H](F)[C@H]1CNC[C@@H](O)[C@@H]1O.Cl [(3R,4R,5S)-5-((R)-1-fluoropropyl)-piperidine-3,4-diol hydrochloride]
Ki [1, 2]: 0.121 ± 0.0026 µM | IC50 [1, 3]: 0.291 ± 0.006 µM | Ki [1, 4]: 0.121 ± 0.0026 µM | Ki [1, 5]: 0.121 ± 0.0026 µM | Ki [1, 6]: 0.031 ± 0.0015 µM | IC50 [1, 7]: 0.06 ± 0.0029 µM

Cl.O[C@H]1[C@H](O)CNC[C@@H]1C(F)F [Cmpd 6, (3R,4R,5S)-5-(Difluoromethyl)piperidine 3,4-diol Hydrochloride]
Vd (Rat pharmacokinetics; IV, 3 mg/kg free base): 2.61 L/kg | clearance (Rat pharmacokinetics; IV, 3 mg/kg free base): 25.9 mL/min/kg | AUC(0-t) (Rat pharmacokinetics; [8]): 2040 ng·h/mL | Cmax (Rat pharmacokinetics; IV, 3 mg/kg free base): 2320 ng/mL | half-life (Rat pharmacokinetics; [9]): 1.1 h | AUC(0-t) (Rat pharmacokinetics; PO, 10 mg/kg free base, AUC0-12 hr, read-out: AUClast (hr*ng/ml), AUC0-12 hr): 6710 ng·h/mL | bioavailability (Rat pharmacokinetics; [10]): 106% | Cmax (Rat pharmacokinetics; PO, 10 mg/kg free base): 3360 ng/mL | half-life (Rat pharmacokinetics; [11]): 2.58 h | AUC(0-t) (Rat pharmacokinetics; [12]): 21700 ng·h/mL | bioavailability (Rat pharmacokinetics; [13]): 101% | Cmax (Rat pharmacokinetics; PO, 30 mg/kg free base): 10000 ng/mL | half-life (Rat pharmacokinetics; [14]): 2.75 h | AUC(0-t) (Rat pharmacokinetics; [15]): 79400 ng·h/mL | bioavailability (Rat pharmacokinetics; [16]): 121% | Cmax (Rat pharmacokinetics; PO, 100 mg/kg free base): 33200 ng/mL | half-life (Rat pharmacokinetics; [17]): 2.41 h | half-life (Rat pharmacokinetics; [18]): 1 to 4 h | bioavailability (Rat pharmacokinetics; [19]): 50 to 100%
